Where two headings read alike, the source gives them in different places.
Tests used:
[1] = target: K403R (Zea mays, UniProt P55241+Q947C0, K403R); experiment: Activation constant from initial rates with varied 3-PGA (0-1 mM) at 2 mM ATP and 2 mM G-1-P, pH 7.4, 15 mM MgCl2, fitted to V = Vmin + Vmax*X/(Ka + X).; assay type: biochemical; parameters: BT2 variant with wild type SH2, E. coli, purified
From the text: All reactions were developed as above.

[2] = target: T1, SH2-E (Zea mays, UniProt P55241+Q947C0, N131R/T142F/A160T/Q261S/A396S/V416I/C424V/S444A); experiment: Pi inhibition study without 3-PGA, ATP varied (0.1-3 mM) at fixed Pi levels (10-30 mM) and sub-saturating G-1-P (1 mM), fit to mixed-type inhibition equations.; assay type: biochemical; conditions: read-out: Km (mM), varied substrate ATP, Pi inhibition in the absence of 3-PGA
T1 construct: SH2-E with wild type BT2 (SH2-E/BT2-WT), E. coli, purified
T1 sequence (Q947C0 1-475): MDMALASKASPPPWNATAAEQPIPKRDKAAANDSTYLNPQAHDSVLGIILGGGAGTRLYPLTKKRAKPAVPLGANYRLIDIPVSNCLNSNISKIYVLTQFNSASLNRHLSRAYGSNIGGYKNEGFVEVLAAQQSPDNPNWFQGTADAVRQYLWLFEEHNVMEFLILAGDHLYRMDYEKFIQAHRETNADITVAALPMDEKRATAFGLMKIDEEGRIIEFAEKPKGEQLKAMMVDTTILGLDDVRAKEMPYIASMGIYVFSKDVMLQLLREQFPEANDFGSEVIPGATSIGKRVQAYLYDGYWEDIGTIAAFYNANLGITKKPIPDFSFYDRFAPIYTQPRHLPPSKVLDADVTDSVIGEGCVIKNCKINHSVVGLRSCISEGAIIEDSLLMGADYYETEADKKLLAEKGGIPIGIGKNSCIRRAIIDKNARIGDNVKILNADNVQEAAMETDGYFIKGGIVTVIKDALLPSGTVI
T1 sequence (P55241 46-516 N131R/T142F/A160T/Q261S/A396S/V416I/C424V/S444A): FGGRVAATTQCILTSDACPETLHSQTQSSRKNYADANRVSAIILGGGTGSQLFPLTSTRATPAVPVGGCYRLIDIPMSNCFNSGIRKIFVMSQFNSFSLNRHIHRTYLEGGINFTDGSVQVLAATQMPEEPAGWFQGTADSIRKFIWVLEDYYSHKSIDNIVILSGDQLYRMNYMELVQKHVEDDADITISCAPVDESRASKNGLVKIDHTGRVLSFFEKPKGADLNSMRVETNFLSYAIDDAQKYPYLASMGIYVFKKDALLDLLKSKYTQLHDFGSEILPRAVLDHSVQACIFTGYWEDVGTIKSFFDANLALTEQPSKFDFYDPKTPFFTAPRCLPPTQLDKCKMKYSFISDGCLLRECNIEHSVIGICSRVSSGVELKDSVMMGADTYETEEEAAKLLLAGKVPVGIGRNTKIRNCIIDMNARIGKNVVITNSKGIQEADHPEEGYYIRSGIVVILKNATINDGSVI
Experimental: (§2) Pi inhibition was carried out in both the presence and absence of 3-PGA with the Pi and substrate concentrations listed below.
(§3) Pi inhibition patterns in the presence and absence of 3PGA were also determined. Pi inhibition patterns were obtained by varying one substrate at several fixed concentrations of Pi, while holding the co-substrate at constant sub-saturating levels.

[3] = target: T2, K402R (Zea mays, UniProt P55241+Q947C0, K402R); experiment: Initial-rate assay (PPi formation coupled to NADH oxidation) with varied ATP (0.05-3.0 mM) at 2.0 mM G-1-P, 2.5 mM 3-PGA, 15 mM MgCl2, 50 mM HEPES pH 7.4, hyperbolic fit.; assay type: biochemical; conditions: read-out: KM ATP
T2 construct: BT2 variant with wild type SH2, E. coli, purified
From the text: (§1) All saturation plots were hyperbolic. No cooperative effects were seen.

[4] = target: T3, K403L (Zea mays, UniProt P55241+Q947C0, K403L); experiment: as above; assay type: biochemical; conditions: read-out: KM ATP
T3 construct: BT2 variant with wild type SH2, E. coli, purified
From the text: as §1

[5] = target: T4, E123Q (Zea mays, UniProt P55241+Q947C0, E123Q); experiment: as above; assay type: biochemical; conditions: read-out: KM ATP
T4 construct: BT2 variant with wild type SH2, E. coli, purified
From the text: as §1

[6] = target: T5, K403E (Zea mays, UniProt P55241+Q947C0, K403E); experiment: as above; assay type: biochemical; conditions: read-out: KM ATP
T5 construct: BT2 variant with wild type SH2, E. coli, purified
From the text: as §1

[7] = target: T6, D242H (Zea mays, UniProt P55241+Q947C0, D242H); experiment: as above; assay type: biochemical; conditions: read-out: KM ATP
T6 construct: BT2 variant with wild type SH2, E. coli, purified
From the text: as §1

[8] = target: T7, wt (SH2-WT/BT2-WT) (Zea mays, UniProt P55241+Q947C0); conditions: read-out: Km (mM), varied substrate ATP, Pi inhibition in the absence of 3-PGA
Experimental: as §2, §3

[9] = target: T8, SH2-ISM (Zea mays, UniProt P55241+Q947C0, Q96G/D161G/A443R); experiment: Pi inhibition study without 3-PGA, ATP varied (0.1-3 mM) at fixed Pi levels (10-30 mM) and sub-saturating G-1-P (1 mM), fit to mixed-type inhibition equations.; assay type: biochemical; conditions: read-out: Km (mM), varied substrate ATP, Pi inhibition in the absence of 3-PGA
T8 construct: SH2-ISM with wild type BT2 (SH2-ISM/BT2-WT), E. coli, purified
T8 sequence (Q947C0 1-475): T1 sequence (Q947C0 1-475)
T8 sequence (P55241 46-516 Q96G/D161G/A443R): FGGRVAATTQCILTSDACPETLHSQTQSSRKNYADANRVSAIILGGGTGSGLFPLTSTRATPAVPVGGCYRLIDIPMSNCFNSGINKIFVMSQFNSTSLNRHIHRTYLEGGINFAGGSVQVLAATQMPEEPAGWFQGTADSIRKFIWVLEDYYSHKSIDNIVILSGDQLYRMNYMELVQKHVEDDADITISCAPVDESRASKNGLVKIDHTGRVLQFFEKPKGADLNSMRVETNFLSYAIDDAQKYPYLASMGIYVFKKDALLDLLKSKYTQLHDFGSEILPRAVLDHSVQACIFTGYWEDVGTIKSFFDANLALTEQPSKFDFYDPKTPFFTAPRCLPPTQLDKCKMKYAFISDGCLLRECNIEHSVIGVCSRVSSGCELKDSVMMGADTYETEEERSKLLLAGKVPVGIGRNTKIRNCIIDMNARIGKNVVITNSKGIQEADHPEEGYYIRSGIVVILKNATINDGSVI
Experimental: as §2, §3

[10] = target: T7, wt (SH2-WT/BT2-WT); conditions: read-out: ATP Km (absence of 3-PGA)
From the text: Activity in the absence of the activator 3PGA was examined. While 3PGA is a noted activator for plant AGPase, the mechanism of activation differs for the various AGPases. […] Thus, the term “activation fold” in the literature is merely an activity reported at single fixed substrate concentrations.
The small subunit mutant, MP, contains the first 198 amino acids of the small subunit of the maize endosperm enzyme and the last 277 amino acids from the potato tuber enzyme resulting in thirty-three amino acid sites that differ from the maize endosperm enzyme ([Cross et al., 2004]).

T7 sequence (P55241 46-516, one chain of several): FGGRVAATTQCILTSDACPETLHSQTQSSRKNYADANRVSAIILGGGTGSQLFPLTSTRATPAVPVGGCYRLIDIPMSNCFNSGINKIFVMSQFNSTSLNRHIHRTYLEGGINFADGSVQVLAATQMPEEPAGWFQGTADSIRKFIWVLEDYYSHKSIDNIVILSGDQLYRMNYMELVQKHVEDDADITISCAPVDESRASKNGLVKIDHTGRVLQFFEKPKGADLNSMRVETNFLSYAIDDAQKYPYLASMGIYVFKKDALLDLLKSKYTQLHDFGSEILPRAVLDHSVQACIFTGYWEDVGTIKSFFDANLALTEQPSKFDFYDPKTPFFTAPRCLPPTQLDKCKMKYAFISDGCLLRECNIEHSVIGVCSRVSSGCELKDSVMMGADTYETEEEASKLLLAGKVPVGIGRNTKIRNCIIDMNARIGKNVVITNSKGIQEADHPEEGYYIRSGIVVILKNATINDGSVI
T3 sequence (Q947C0 1-475 K403L): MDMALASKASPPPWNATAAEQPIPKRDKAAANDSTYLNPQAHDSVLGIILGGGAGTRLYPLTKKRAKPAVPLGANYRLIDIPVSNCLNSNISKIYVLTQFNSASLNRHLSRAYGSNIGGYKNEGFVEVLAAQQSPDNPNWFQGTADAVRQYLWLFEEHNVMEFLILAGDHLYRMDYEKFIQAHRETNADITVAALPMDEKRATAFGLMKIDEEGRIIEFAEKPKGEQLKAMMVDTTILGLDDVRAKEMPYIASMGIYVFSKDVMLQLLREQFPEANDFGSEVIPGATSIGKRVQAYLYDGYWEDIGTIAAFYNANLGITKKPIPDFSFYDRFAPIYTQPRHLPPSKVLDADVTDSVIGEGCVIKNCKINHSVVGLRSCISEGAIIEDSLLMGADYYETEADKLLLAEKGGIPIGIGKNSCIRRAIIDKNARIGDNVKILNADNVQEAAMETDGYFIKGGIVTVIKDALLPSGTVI
T3 sequence (P55241 46-516): as the sequence (P55241 46-516, one chain of several) above
T4 sequence (Q947C0 1-475 E123Q): as the sequence (Q947C0 1-475 K403L) above, with E123Q, L403K counted along it
T4 sequence (P55241 46-516): as the sequence (P55241 46-516, one chain of several) above
T6 sequence (Q947C0 1-475 D242H): as the sequence (Q947C0 1-475 K403L) above, with D242H, L403K counted along it
T6 sequence (P55241 46-516): as the sequence (P55241 46-516, one chain of several) above
Sequence of K403R (Q947C0 1-475 K403R): as the sequence (Q947C0 1-475 K403L) above, with L403R counted along it
Sequence of K403R (P55241 46-516): as the sequence (P55241 46-516, one chain of several) above
T2 sequence (Q947C0 1-475 K402R): as the sequence (Q947C0 1-475 K403L) above, with K402R, L403K counted along it
T2 sequence (P55241 46-516): as the sequence (P55241 46-516, one chain of several) above
T5 sequence (Q947C0 1-475 K403E): as the sequence (Q947C0 1-475 K403L) above, with L403E counted along it
T5 sequence (P55241 46-516): as the sequence (P55241 46-516, one chain of several) above

SMILES | 3-PGA Ka (activation constant) [1] | Km [2] [mM] | Km [3] [µM] | Km [4] [µM] | Km [5] [µM] | Km [6] [µM] | Km [7] [µM] | Km [8] [mM] | Km [9] [mM] | Km [10] [mM]
O=C(O)[C@H](O)COP(=O)(O)O [3-PGA, 3-phosphoglycerate (3-phosphoglyceric acid)] | 0.22 ± 0.057 |  |  |  |  |  |  |  |  | 
Nc1ncnc2c1ncn2[C@@H]1O[C@H](COP(=O)(O)OP(=O)(O)OP(=O)(O)O)[C@@H](O)[C@H]1O [ATP, adenosine 5'-triphosphate] |  | 0.97 ± 0.081 | 79 ± 15 | 82 ± 17 | 52 ± 6 | 69 ± 12 | 110 ± 16 | 20.4 ± 10.1 | 0.54 ± 0.057 | 4
